One block for each molecule: values may come before it.
How the values were obtained:
Format in all cases: functional, cell membranes, Membrane
Settings in all cases: komagataella pastoris
[1] = molecular target: T1, ATP-binding cassette sub-family C member 6 (Rattus norvegicus, UniProt O88269); experiment: TP_TRANSPORTER: inhibition of photolabeling by IAARh123 (IAARh123: 1 uM, DOX: 1000 uM) in membranes from Mrp6-expressing P. pastoris
[2] = molecular target: T1, ATP-binding cassette sub-family C member 6; experiment: TP_TRANSPORTER: inhibition of photolabeling by IAARh123 (IAARh123: 1 uM, VP-16: 1000 uM) in membranes from Mrp6-expressing P. pastoris
[3] = molecular target: T1, ATP-binding cassette sub-family C member 6; experiment: TP_TRANSPORTER: inhibition of photolabeling by IAARh123 (IAARh123: 1 uM, LTC4: 300 uM) in membranes from Mrp6-expressing P. pastoris
[4] = molecular target: T1, ATP-binding cassette sub-family C member 6; experiment: TP_TRANSPORTER: inhibition of photolabeling by IAARh123 (IAARh123: 1 uM, K571: 1000 uM) in membranes from Mrp6-expressing P. pastoris
[5] = molecular target: T1, ATP-binding cassette sub-family C member 6; experiment: TP_TRANSPORTER: inhibition of photolabeling by IAARh123 (IAARh123: 1 uM, VBL: 1000 uM) in membranes from Mrp6-expressing P. pastoris

T1 sequence (O88269 whole entry): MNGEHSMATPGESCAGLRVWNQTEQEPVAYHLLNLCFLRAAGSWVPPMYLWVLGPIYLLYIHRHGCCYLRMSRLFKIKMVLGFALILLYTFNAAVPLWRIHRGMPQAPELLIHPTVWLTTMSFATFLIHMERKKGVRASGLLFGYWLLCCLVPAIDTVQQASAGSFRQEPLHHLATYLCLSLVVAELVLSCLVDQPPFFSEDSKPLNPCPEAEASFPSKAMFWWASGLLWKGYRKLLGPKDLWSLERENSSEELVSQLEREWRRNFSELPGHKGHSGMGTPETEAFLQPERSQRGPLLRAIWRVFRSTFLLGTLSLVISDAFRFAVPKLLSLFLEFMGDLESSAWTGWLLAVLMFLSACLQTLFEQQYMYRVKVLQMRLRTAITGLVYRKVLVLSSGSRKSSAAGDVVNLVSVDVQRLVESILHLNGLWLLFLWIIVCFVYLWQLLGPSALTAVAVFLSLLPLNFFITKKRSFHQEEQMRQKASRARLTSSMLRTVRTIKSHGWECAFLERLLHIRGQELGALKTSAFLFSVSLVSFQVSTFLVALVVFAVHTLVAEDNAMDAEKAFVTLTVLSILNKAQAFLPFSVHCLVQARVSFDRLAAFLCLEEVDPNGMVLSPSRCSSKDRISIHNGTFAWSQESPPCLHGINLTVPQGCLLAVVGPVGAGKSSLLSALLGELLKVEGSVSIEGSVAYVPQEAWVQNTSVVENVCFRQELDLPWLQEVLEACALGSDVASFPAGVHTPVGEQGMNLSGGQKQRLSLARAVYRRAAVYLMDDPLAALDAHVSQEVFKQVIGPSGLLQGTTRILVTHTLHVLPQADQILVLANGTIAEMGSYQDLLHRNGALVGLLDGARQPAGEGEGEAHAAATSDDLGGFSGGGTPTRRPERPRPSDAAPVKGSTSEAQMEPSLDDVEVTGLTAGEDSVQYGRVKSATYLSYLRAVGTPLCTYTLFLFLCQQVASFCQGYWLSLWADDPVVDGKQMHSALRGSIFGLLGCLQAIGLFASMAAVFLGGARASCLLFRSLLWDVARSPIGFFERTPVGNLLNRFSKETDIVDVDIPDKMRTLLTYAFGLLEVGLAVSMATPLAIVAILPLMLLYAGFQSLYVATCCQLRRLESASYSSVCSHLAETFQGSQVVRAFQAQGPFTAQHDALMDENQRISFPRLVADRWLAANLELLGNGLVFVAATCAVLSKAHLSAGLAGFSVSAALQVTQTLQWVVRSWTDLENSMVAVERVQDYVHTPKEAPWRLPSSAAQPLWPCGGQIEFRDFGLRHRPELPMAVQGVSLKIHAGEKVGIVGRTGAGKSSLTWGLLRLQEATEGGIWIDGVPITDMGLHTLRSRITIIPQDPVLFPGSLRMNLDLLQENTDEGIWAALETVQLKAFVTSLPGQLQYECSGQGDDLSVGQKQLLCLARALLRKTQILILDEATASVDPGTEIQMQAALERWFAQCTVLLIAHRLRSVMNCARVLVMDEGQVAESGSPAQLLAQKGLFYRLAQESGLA

SMILES: COc1cccc2c1C(=O)c1c(O)c3c(c(O)c1C2=O)C[C@@](O)(C(=O)CO)C[C@@H]3O[C@H]1C[C@H](N)[C@H](O)[C@H](C)O1 [DOXORUBICIN]
Activity [1]: inhibitor [(at a rough estimate) 55 % of control]

Activity [2]: is not an inhibitor [-]
SMILES: COc1cc([C@@H]2c3cc4c(cc3[C@@H](O[C@@H]3O[C@@H]5CO[C@@H](C)O[C@H]5[C@H](O)[C@H]3O)[C@H]3COC(=O)[C@H]23)OCO4)cc(OC)c1O [ETOPOSIDE]

Activity [3]: is not an inhibitor [-]
SMILES: CCCCC/C=C\C\C=C/C=C/C=C/[C@@H](SC[C@@H](NC(=O)CC[C@H](N)C(=O)O)C(=O)NCC(=O)O)[C@@H](O)CCCC(=O)O [LEUKOTRIEN C4]

SMILES: CN(C)C(=O)CCSC(SCCC(=O)O)c1cccc(/C=C/c2ccc3ccc(Cl)cc3n2)c1 (stereo not given) [MK-571]
Activity [4]: inhibitor [(at a rough estimate) 60 % of control]

SMILES: CC[C@]1(O)C[C@@H]2CN(CCc3c([nH]c4ccccc34)[C@@](C(=O)OC)(c3cc4c(cc3OC)N(C)[C@H]3[C@@](O)(C(=O)OC)[C@H](OC(C)=O)[C@]5(CC)C=CCN6CC[C@]43[C@@H]65)C2)C1 [VINBLASTINE]
Activity [5]: inhibitor [(at a rough estimate) 55 % of control]
